In article PMC3953502 (ACS chemical biology, 2013):
Blank lines part the entries; values can stand above or below the molecule they belong to.

Tests used:
ML-IAP = target: T1, ML-IAP (Homo sapiens, UniProt Q96CA5); test: Fluorescence polarization competition assay, ML-IAP BIR; type: binding
T1 sequence (Q96CA5 63-179 limits assumed): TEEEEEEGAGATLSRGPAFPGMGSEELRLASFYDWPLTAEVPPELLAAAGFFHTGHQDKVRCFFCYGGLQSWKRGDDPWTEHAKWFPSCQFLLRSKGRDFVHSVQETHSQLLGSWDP

Ovarian Cancer Cells = conditions: 50 ng/mL TRAIL; cited from earlier work
[1] = tested on: MDA-MB-231 breast adenocarcinoma cells; test: MDA-MB-231 cell viability, sensitization to TRAIL; type: cell-based; conditions: MDA-MB-231 cells, TRAIL alone at maximum dose of 100 ng/mL

- Ki (ML-IAP): 41 nM
Molecule: CN[C@@H](C)C(=O)N[C@H](C(=O)N1CCC[C@H]1C(=O)Nc1snnc1-c1ccccc1)C1CCCCC1 [GDC-0152]

Molecule: CN[C@@H](C)C(=O)N[C@H](C(=O)N1CC[C@H]2CCN(CCc3ccccc3)C[C@H]21)C1CCCCC1 [LBW242]
- increase in LBW242-induced cell death with addition of TRAIL (Ovarian Cancer Cells): 2- to 3 fold

B1: TRAIL: Tumor necrosis factor-related apoptosis-inducing ligand, member of the TNF family of cytokines (protein, UniProt P50591 1-281, looked up)
Tumor necrosis factor ligand …: MAMMEVQGGPSLGQTCVLIVIFTVLLQSLCVAVTYVYFTNELKQMQDKYSKSGIACFLKEDDSYWDPNDEESMNSPCWQVKWQLRQLVRKMILRTSEETISTVQEKQQNISPLVRERGPQRVAAHITGTRGRSNTLSSPNSKNEKALGRKINSWESSRSGHSFLSNLHLRNGELVIHEKGFYYIYSQTYFRFQEEIKENTKNDKQMVQYIYKYTSYPDPILLMKSARNSCWSKDAEYGLYSIYQGGIFELKENDRIFVSVTNEHLIDMDHEASFFGAFLVG
- cells undergone cell death [1]: 30%
